# Results reported in ChEMBL document CHEMBL1137904, “Design, synthesis, and evaluation of oxyanion-hole selective inhibitor substituents for the S1 subsite of factor Xa” (Bioorg Med Chem Lett, 2004).
# Experiment: In vitro inhibitory activity towards Coagulation factor X was determined using chromogenic substrate, MeO-COD-CHG-Gly-Arg-pNA
row,SMILES,Ki
1,N=C(N)c1ccc(N)cc1,197 µM
2,N=C(N)c1ccc(CO)cc1,55 µM
3,N=C(N)c1ccc(CCO)cc1,607 µM
4,N=C(N)c1ccc(CCN)cc1,750 µM
5,CS(=O)(=O)c1ccc(C(=N)N)cc1,1800 µM
6,CP(=O)(O)c1ccc2c(N)nccc2c1,> 5000 µM
7,N=C(N)c1ccc(CN)cc1,429 µM
8,CN(C)c1ccc(P(C)(=O)O)cc1,4100 µM
9,N=C(N)c1ccc(O)cc1,30 µM
10,CS(=O)(=O)CCc1ccc(C(=N)N)cc1,193 µM
11,CS(=O)(=O)Cc1ccc(C(=N)N)cc1,> 5000 µM
12,N=C(N)c1ccccc1 [BENZAMIDINE],349 µM
